# From a melting point compilation (Tetko et al.; mined from patent text by program, amines drawn as free bases though some values may be those of a salt)
row,SMILES,melting point
1,CCCNP(=O)(OC)N1CC(NC(=O)OCc2ccccc2)C1=O (centres undefined),121 to 123 °C
2,Cc1nc(-n2ccc(CCc3ccccc3)cc2=O)sc1C(=O)NCc1ccccc1,149 to 150 °C
3,O=S(=O)(CCc1ccc(-c2ccccc2)cc1)N1CC(CN2CCCC2)Cc2ccccc21 (centres undefined),107 to 110 °C
4,COc1cc2c(Nc3cc(OC)c(OC)c(OC)c3)c(C#N)cnc2cc1/C=C/CCO,184 to 185 °C
5,Cc1nc(C[C@H]2OC[C@H](c3ccc(F)cc3)CO2)nc(C(=O)NCC(=O)O)c1O,209 °C
6,CSc1nn2c(N)cc(N3CCN(C)CC3)nc2c1S(=O)(=O)c1ccccc1,> 230 °C
7,CCOC(=O)N1CCN(C(=O)OC2c3ccccc3C(=O)N2c2ccc(Cl)cn2)CC1 (centres undefined),160 °C
8,CCC1=NC(=NOC(=O)NC)SC1(C)C,98 to 100 °C
9,CCCCCCCCCCCCCCCCCC(=O)OC1CC(C)(C)N(OC(C)=O)C(CC)(CC)C1 (centres undefined),41 to 44 °C
10,CC(=O)NCCc1cccc2ccc(O)cc12,125 to 126 °C
11,O=C(Nc1ccccc1)N(Cc1ccc(F)cc1)C1CCCC1,120 to 121 °C
12,NC(=O)CCCCCc1cccc2cncn12,131 to 132 °C
13,O=C(Nc1ccc(-n2nc(C(F)(F)F)cc2OC(F)F)cc1)c1cccc(F)c1F,154 to 155 °C
14,BrC(Br)c1nccnc1C(Br)Br,167 to 170 °C
15,COC(=O)[C@H]1C[C@H](n2c(Br)c(-c3cccc(OCc4ccccc4)c3)c3c(N)ncnc32)C1,124 to 125 °C
16,COc1ccc(C=CC(=O)c2cccc(O)c2)cc1,93 to 94 °C
17,COCCOCCOCCOCCNS(=O)(=O)c1ccc(NC=C2C(=O)Nc3ccc4ncsc4c32)cc1,158 to 159 °C
18,Cc1ccc(NC(=O)c2ccc3c(c2)C(=O)N(c2c(Cl)cccc2Cl)C3=O)cc1C,238 to 240 °C
19,COc1ccc(NC(=O)c2c(Cl)cccc2Cl)c2nccc(NN)c12,> 250 °C
20,COc1ccc(Nc2nc(Cl)nc(Nc3ccc(OC)c(F)c3)n2)cc1F,194 °C
21,CCOC(=O)COc1ccc(CSCC(=O)OCC)cc1NC(=O)c1ccc(OCCCCc2ccccc2)cc1,56 to 57 °C

row,SMILES,melting point
1,CCCCCNC(=NC#N)Nc1cccnc1,130 to 132 °C
2,CC12CCCC1C1CCc3cc(F)ccc3C1CC2 (centres undefined),178 °C
3,C[C@H]1COc2c(N3C[C@@H]4CCOC[C@@]4(N)C3)c(F)cc3c(=O)c(C(=O)O)cn1c23,> 300 °C
4,CCNC(=O)CC1CCN(Cc2cnc3c(C)c(NC(=O)c4ccc(-c5ccc(F)cc5)cc4)ccc3c2)CC1,243 to 245 °C
5,c1ccc(C[C@@H]2CN3C(c4nnn[nH]4)=Nc4nc(C5CCCC5)[nH]c4C3=N2)cc1,268 to 270 °C
6,CONC(NC(C)=O)C(=O)NCc1ccccc1 (centres undefined),95 to 97 °C
7,COc1cccc2c(NCc3ccccc3)nc(N)nc12,243 to 245 °C
8,CCCc1cc(-c2ccc(Cl)cc2)nc2c(I)cnn12,108 to 110 °C
9,CCOC(=O)Cc1ccc(NC(=O)C(COc2cccnc2)NS(=O)(=O)c2ccc(Cl)cc2)cc1 (racemic),136 to 139 °C
10,O=C(NN1CCCCC1)c1nc(-c2ccc(Cl)cc2Cl)c(-c2ccc(Br)cc2)s1,171 to 173 °C
11,O=C(CN1CCC(Oc2ccccc2)CC1)Nc1ccc2[nH]c(=O)oc2c1,190 to 196 °C
12,Cc1cc(-c2cnn3c(C(F)(F)F)cc(-c4ccc(C(F)(F)F)c(OCC(F)(F)F)c4)nc23)ccn1,201 °C
13,CCc1nc(S(=O)(=O)Nc2c(Cl)cccc2Cl)nn1-c1ccccc1,185 to 187 °C
14,CC(C)(C)C(=O)NCc1cccs1,64 to 65 °C
15,CC(C)(C)OC(=O)N(CCCCC(=O)c1cc2c3c(c1)CCN3C(=O)CC2)CCc1ccccc1O,154 to 155 °C
16,CCOC(=O)CC(=O)c1cc(F)c(Br)c(F)c1F,51 to 59 °C
17,CCOC(=O)c1cc2ccc(C)c(Cl)c2[nH]1,73 to 75 °C
18,C#CCn1c(-c2ccccc2)nc(C(=O)N(C)C)c(C)c1=O,137 to 140 °C
19,CC(Nc1ccccc1O)=C1C(=O)OC(=O)C(C(=O)C=Cc2ccc(O)cc2)=C1O,257 to 260 °C
20,CCCOc1ccc(N(C)C)cc1-c1ncc(-c2nnn[nH]2)c(=O)[nH]1,258 to 259 °C
21,CSc1nc(=O)cc(N)n1-c1ccc(Cl)cc1,180 to 182 °C

# Results, then the compound that gave them:
row,melting point,SMILES
1,303 to 305 °C,COc1cc(OC)c2c(=O)[nH]c(-c3ccc(O)cc3)nc2c1
2,154 to 155 °C,COC1(OC)SC(c2ccncc2)=C(C)NC1=O
3,142 to 144 °C,N#Cc1ccc(C(=O)NC(=S)NCCc2ccccc2)cc1
4,178 to 180 °C,Cc1cc(-n2ccc(OCc3ccc(OC(F)F)cc3)cc2=O)sc1C(=O)NCc1ccccc1
5,153 to 155 °C,O=C(O)CCC12CCCn3c1c(c1ccccc13)CCO2 (centres undefined)
6,90 to 93 °C,C=C(c1ccc(N(C)C)cc1)c1ccc(N2CCCC2)cc1C
7,123 to 124 °C,COc1ccc2c(c1)CCc1cc(OC)ccc1N2
8,223 to 225 °C,CCOC(=O)c1ccccc1-c1ccc(Nc2cc(CC)nc3ccnn23)cc1
9,100 °C,C[C@H]1C[C@H](OC(=O)C(C)(C)Oc2ccc(CCNC(=O)c3ccc(Cl)cc3)cc2)CC(C)(C)C1 (relative stereo)
10,91 to 100 °C,CN(C)CC/C=C1/c2cc(Br)ccc2COc2ccccc21
11,170 to 173 °C,CCOC(=O)C(=O)Nc1cc(NC(=O)C(=O)OCC)c(OC)nc1OC
12,158 to 160 °C,Cc1nn(-c2cc(O)c(Cl)cc2F)c(C)c1C
13,138 to 140 °C,COC=C(C(=O)OC)c1ccccc1CON=C(C)c1nn(C)c2cc(OCC3CC3(Cl)Cl)c(F)cc12 (centres undefined)
14,157 to 159 °C,COCc1cn(-c2cccc(C(F)(F)F)c2)nc(C(=O)N(C)OC)c1=O
15,52 to 53 °C,BrCc1ccc(CCc2ccccc2)cc1
16,176 to 177 °C,O=C1c2ccccc2-c2c1c1ccccc1c(=O)n2CCCCNS(=O)(=O)c1ccc(Br)cc1
17,130 to 133 °C,Cc1nc[nH]c1CSCCNC(=N)NS(N)(=O)=O
18,107 to 110 °C,Cc1ccc2c(c1)c(C1=C(Br)C(=O)N(C)C1=O)cn2C
19,238 to 242 °C,CS(=O)(=O)Nn1c(=O)[nH]c2cc(C(F)(F)F)c(N3CCC(=O)CC3)cc2c1=O

row,melting point,SMILES
1,120 to 124 °C,CCNC(=NC#N)NC
2,136 to 137 °C,CO[C@]1(c2cc(F)cc(Sc3ccc4c(c3)CC/C4=N\O)c2)CCO[C@@H]1C (racemic)
3,90 to 118 °C,CCCCCN(CCC12CC3CC(CC(C3)C1)C2)C(=O)NC/C=C/c1ccncc1
4,193 to 195 °C,COc1cc(-c2cccs2)ccc1C(=O)/C=C/c1ccc(C(=O)O)cc1
5,167 to 168 °C,COc1ccc(CCNC(=O)c2nc(N)sc2-c2ccncc2)cc1OC
6,125 to 135 °C,Cc1noc(NS(=O)(=O)c2ccccc2-c2ccc(-c3ncco3)cc2CN(C)C(=O)c2ccc(F)cc2)c1C
7,135 to 137 °C,CCC(Oc1cc(Cl)cc(Cl)c1)C(=O)NCc1ccccc1C (centres undefined)
8,190 to 193 °C,N#CCc1cccc(-c2ccc3c(c2)C2(CCCCC2)C(=O)N3)c1
9,129 to 131 °C,Cc1ccc2oc(=O)c(C(=O)O)c(-c3ccccc3)c2c1
10,125 to 126 °C,OCCCC#Cc1ccc(C(=C2CCCCCC2)c2ccc(O)cc2)cc1
11,136 to 137 °C,CCOC(=O)C1=C(C)NC(C#N)=C(C(=O)OCC)C1c1ccccc1Cl (centres undefined)
12,84 to 86 °C,CC(C)(C)c1cccc(S(=O)(=O)n2ccc3cc(C(F)(F)F)ccc32)c1
13,255 to 258 °C,CN(C)CCCOc1cc2oc3cc(-c4ccccc4Cl)c4c(c3c2cc1O)C(=O)NC4=O
14,162 °C,Cc1ccc(S(=O)(=O)N=CN(C)C)cc1Br
15,290 to 291 °C,Cc1[nH]c(=O)c(C#N)cc1-c1ccc(S(C)=O)cc1 (centres undefined)
16,111 to 112 °C,CC(C)N(C(C)C)C(C)CN1C(=O)C(=O)c2ccccc21 (centres undefined)
17,159 to 160 °C,Cc1ncncc1C(=O)Nc1ccc(-n2nc(C(F)(F)F)cc2C2CC2)nc1
18,137 to 138 °C,CCCn1c(=O)c2[nH]c(CCCc3ccccc3)nc2n(CCC)c1=O
19,72.5 to 73.5 °C,COC(=O)[C@@H]1c2ccccc2C[C@@H]1O

row,melting point,SMILES
1,165 to 166 °C,O=C(O)Cc1ccccc1Oc1ccc(C(F)(F)F)cc1NS(=O)(=O)c1cc(C(F)(F)F)cc(C(F)(F)F)c1
2,190 to 191 °C,O=C(NC1CCN(CCCc2ccccc2)CC1)C1=Cc2cnc3cccc(n23)S1
3,89 to 98 °C,COc1cc(CC(=O)O)ccc1OCCNC(=O)C1Cc2ccccc2N1S(=O)(=O)c1ccc(-c2cccc(C(F)(F)F)c2)cc1 (centres undefined)
4,179 to 181 °C,Cc1cc(C(C)(C)CC(C)(C)C)c(O)c(C)c1CC(N)=O
5,103 to 105 °C,CCOC(=O)C1COc2cc(-c3ccccc3)ccc2O1 (centres undefined)
6,51 to 53 °C,CCCOCCCCOCCCCCCNCC(O)c1cc(Cl)c(N)c(Cl)c1 (centres undefined)
7,99 to 101 °C,CCCCN=C1SC(=CC(=O)O)C(=O)N1CCCC
8,156 to 157 °C,CCc1[nH]nc(C(=O)NC2CCCC2)c1[N+](=O)[O-]
9,> 230 °C,N#CC1=C(n2cccc2)Oc2c(ccc3cc(C(=O)O)c(O)cc23)C1c1cccc([N+](=O)[O-])c1 (centres undefined)
10,146 to 148 °C,CN(C)CCCNC(=O)c1c2ccc(Cl)cc2c(-c2ccccc2)n1C
11,125 to 127 °C,O=C1CCCN1C1=CC(CF)(CF)Oc2ccc(C(F)(F)F)cc21
12,96 to 99 °C,O=Cc1cccn2cc(-c3ccccc3)nc12
13,155 to 159 °C,CCn1c(=O)c2c(N3CCN(C)CC3)cc(Cl)cc2n(Cc2ccccc2)c1=O
14,238 to 240 °C,COc1cc2c3c(n(C)c(=O)c2cc1OC)-c1cc(OCc2ccccc2)c(OCc2ccccc2)cc1C3=O
15,137 °C,COc1ccc(CNc2nc(CCCCCCC(=O)O)nc3sc(Cl)cc23)cc1Cl
16,208 °C,Cc1nc(-c2ccc(C(F)(F)F)cc2)oc1COc1ccc(Cc2nn[nH]n2)cc1
17,66 to 68 °C,CCC(CC)(CO)CS(N)(=O)=O
18,180 to 186 °C,CC(=O)Nc1ccc2c3c(cccc13)CC2
19,83 to 84 °C,C#CCOc1nsc(SC(F)F)c1C#N
